Measured values as given in the supplement of paper PMC4862054.

Tested on: BT-474
Experiment: normalised viability (% of control), CellTiter-Blue; higher = more viable cells (about 100 = DMSO control)
Settings: 100 nM; incubation time: 72 h
Experimental: (§1)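 DSRT, CellTiter-Blue viability, 72 h incubation. Signal is normalised to DMSO and benzethonium chloride controls. Value is the normalised response at dose 3.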

SMILES	normalised viability [%]
c1ccc2c(CCNc3ccc(Nc4ccncc4)cc3)c[nH]c2c1 [Serdemetan]	111
CN(C)CCOc1ccc(/C(=C(/CCCl)c2ccccc2)c2ccccc2)cc1 [Toremifene]	126
CC(C)C[C@@H](C(=O)N[C@H](C(=O)OC1CCCC1)c1ccccc1)[C@H](O)C(=O)NO [Tosedostat]	110
COc1cc2/c(=N/c3ccc(Br)cc3F)nc[nH]c2cc1OCC1CCN(C)CC1 [Vandetanib]	90.6
COCC[n+]1c2c(n(Cc3cnccn3)c1C)C(=O)c1ccccc1C2=O [YM155]	1.04

Same assay, conditions: 1000 nM; incubation time: 72 h

SMILES	normalised viability [%]
S=P(N1CC1)(N1CC1)N1CC1 [Thio-TEPA]	114

Tested on: BT-549
Experiment: as above
Settings: 100 nM; incubation time: 72 h
Experimental: as §1

SMILES	normalised viability [%]
c1ccc2c(CCNc3ccc(Nc4ccncc4)cc3)c[nH]c2c1 [Serdemetan]	113
CN(C)CCOc1ccc(/C(=C(/CCCl)c2ccccc2)c2ccccc2)cc1 [Toremifene]	109
CC(C)C[C@@H](C(=O)N[C@H](C(=O)OC1CCCC1)c1ccccc1)[C@H](O)C(=O)NO [Tosedostat]	72.7
COc1cc2/c(=N/c3ccc(Br)cc3F)nc[nH]c2cc1OCC1CCN(C)CC1 [Vandetanib]	89
COCC[n+]1c2c(n(Cc3cnccn3)c1C)C(=O)c1ccccc1C2=O [YM155]	34

Same assay, conditions: 1000 nM; incubation time: 72 h

SMILES	normalised viability [%]
S=P(N1CC1)(N1CC1)N1CC1 [Thio-TEPA]	105

Tested on: CAL-120
Experiment: as above
Settings: 100 nM; incubation time: 72 h
Experimental: as §1

SMILES	normalised viability [%]
c1ccc2c(CCNc3ccc(Nc4ccncc4)cc3)c[nH]c2c1 [Serdemetan]	81.9
CN(C)CCOc1ccc(/C(=C(/CCCl)c2ccccc2)c2ccccc2)cc1 [Toremifene]	93.7
CC(C)C[C@@H](C(=O)N[C@H](C(=O)OC1CCCC1)c1ccccc1)[C@H](O)C(=O)NO [Tosedostat]	66.8
COc1cc2/c(=N/c3ccc(Br)cc3F)nc[nH]c2cc1OCC1CCN(C)CC1 [Vandetanib]	98.3
COCC[n+]1c2c(n(Cc3cnccn3)c1C)C(=O)c1ccccc1C2=O [YM155]	5.35

Same assay, conditions: 1000 nM; incubation time: 72 h

SMILES	normalised viability [%]
S=P(N1CC1)(N1CC1)N1CC1 [Thio-TEPA]	86.7

Tested on: CAL-148
Experiment: as above
Settings: 10 nM; incubation time: 72 h
Experimental: as §1

SMILES	normalised viability [%]
c1ccc2c(CCNc3ccc(Nc4ccncc4)cc3)c[nH]c2c1 [Serdemetan]	83.5
CN(C)CCOc1ccc(/C(=C(/CCCl)c2ccccc2)c2ccccc2)cc1 [Toremifene]	108
CC(C)C[C@@H](C(=O)N[C@H](C(=O)OC1CCCC1)c1ccccc1)[C@H](O)C(=O)NO [Tosedostat]	91.2
COc1cc2/c(=N/c3ccc(Br)cc3F)nc[nH]c2cc1OCC1CCN(C)CC1 [Vandetanib]	92
COCC[n+]1c2c(n(Cc3cnccn3)c1C)C(=O)c1ccccc1C2=O [YM155]	61.4

Same assay, conditions: 100 nM; incubation time: 72 h

SMILES	normalised viability [%]
S=P(N1CC1)(N1CC1)N1CC1 [Thio-TEPA]	102

Tested on: CAL-51
Experiment: as above
Settings: 10 nM; incubation time: 72 h
Experimental: as §1

SMILES	normalised viability [%]
c1ccc2c(CCNc3ccc(Nc4ccncc4)cc3)c[nH]c2c1 [Serdemetan]	104
CN(C)CCOc1ccc(/C(=C(/CCCl)c2ccccc2)c2ccccc2)cc1 [Toremifene]	107
CC(C)C[C@@H](C(=O)N[C@H](C(=O)OC1CCCC1)c1ccccc1)[C@H](O)C(=O)NO [Tosedostat]	101
COc1cc2/c(=N/c3ccc(Br)cc3F)nc[nH]c2cc1OCC1CCN(C)CC1 [Vandetanib]	99.3
COCC[n+]1c2c(n(Cc3cnccn3)c1C)C(=O)c1ccccc1C2=O [YM155]	70.5

Same assay, conditions: 100 nM; incubation time: 72 h

SMILES	normalised viability [%]
S=P(N1CC1)(N1CC1)N1CC1 [Thio-TEPA]	93.7

Tested on: CAL-85-1
Experiment: as above
Settings: 10 nM; incubation time: 72 h
Experimental: as §1

SMILES	normalised viability [%]
c1ccc2c(CCNc3ccc(Nc4ccncc4)cc3)c[nH]c2c1 [Serdemetan]	102
CN(C)CCOc1ccc(/C(=C(/CCCl)c2ccccc2)c2ccccc2)cc1 [Toremifene]	100
CC(C)C[C@@H](C(=O)N[C@H](C(=O)OC1CCCC1)c1ccccc1)[C@H](O)C(=O)NO [Tosedostat]	89.4
COc1cc2/c(=N/c3ccc(Br)cc3F)nc[nH]c2cc1OCC1CCN(C)CC1 [Vandetanib]	104
COCC[n+]1c2c(n(Cc3cnccn3)c1C)C(=O)c1ccccc1C2=O [YM155]	29.7

Same assay, conditions: 100 nM; incubation time: 72 h

SMILES	normalised viability [%]
S=P(N1CC1)(N1CC1)N1CC1 [Thio-TEPA]	102

Tested on: DU-4475
Experiment: as above
Settings: 10 nM; incubation time: 72 h
Experimental: as §1

SMILES	normalised viability [%]
c1ccc2c(CCNc3ccc(Nc4ccncc4)cc3)c[nH]c2c1 [Serdemetan]	103
CN(C)CCOc1ccc(/C(=C(/CCCl)c2ccccc2)c2ccccc2)cc1 [Toremifene]	106
CC(C)C[C@@H](C(=O)N[C@H](C(=O)OC1CCCC1)c1ccccc1)[C@H](O)C(=O)NO [Tosedostat]	79.7
COc1cc2/c(=N/c3ccc(Br)cc3F)nc[nH]c2cc1OCC1CCN(C)CC1 [Vandetanib]	110
COCC[n+]1c2c(n(Cc3cnccn3)c1C)C(=O)c1ccccc1C2=O [YM155]	110

Same assay, conditions: 100 nM; incubation time: 72 h

SMILES	normalised viability [%]
S=P(N1CC1)(N1CC1)N1CC1 [Thio-TEPA]	102

Tested on: HCC1143
Experiment: as above
Settings: 100 nM; incubation time: 72 h
Experimental: as §1

SMILES	normalised viability [%]
c1ccc2c(CCNc3ccc(Nc4ccncc4)cc3)c[nH]c2c1 [Serdemetan]	76
CN(C)CCOc1ccc(/C(=C(/CCCl)c2ccccc2)c2ccccc2)cc1 [Toremifene]	109
CC(C)C[C@@H](C(=O)N[C@H](C(=O)OC1CCCC1)c1ccccc1)[C@H](O)C(=O)NO [Tosedostat]	89.3
COc1cc2/c(=N/c3ccc(Br)cc3F)nc[nH]c2cc1OCC1CCN(C)CC1 [Vandetanib]	111
COCC[n+]1c2c(n(Cc3cnccn3)c1C)C(=O)c1ccccc1C2=O [YM155]	12.4

Same assay, conditions: 1000 nM; incubation time: 72 h

SMILES	normalised viability [%]
S=P(N1CC1)(N1CC1)N1CC1 [Thio-TEPA]	88.8

Tested on: HCC1599
Experiment: as above
Settings: 100 nM; incubation time: 72 h
Experimental: as §1

SMILES	normalised viability [%]
c1ccc2c(CCNc3ccc(Nc4ccncc4)cc3)c[nH]c2c1 [Serdemetan]	136
CN(C)CCOc1ccc(/C(=C(/CCCl)c2ccccc2)c2ccccc2)cc1 [Toremifene]	114
CC(C)C[C@@H](C(=O)N[C@H](C(=O)OC1CCCC1)c1ccccc1)[C@H](O)C(=O)NO [Tosedostat]	102
COc1cc2/c(=N/c3ccc(Br)cc3F)nc[nH]c2cc1OCC1CCN(C)CC1 [Vandetanib]	96.3
COCC[n+]1c2c(n(Cc3cnccn3)c1C)C(=O)c1ccccc1C2=O [YM155]	10

Same assay, conditions: 1000 nM; incubation time: 72 h

SMILES	normalised viability [%]
S=P(N1CC1)(N1CC1)N1CC1 [Thio-TEPA]	87.4

Tested on: HCC1937
Experiment: as above
Settings: 100 nM; incubation time: 72 h
Experimental: as §1

SMILES	normalised viability [%]
c1ccc2c(CCNc3ccc(Nc4ccncc4)cc3)c[nH]c2c1 [Serdemetan]	95.2
CN(C)CCOc1ccc(/C(=C(/CCCl)c2ccccc2)c2ccccc2)cc1 [Toremifene]	97.5
CC(C)C[C@@H](C(=O)N[C@H](C(=O)OC1CCCC1)c1ccccc1)[C@H](O)C(=O)NO [Tosedostat]	67.9
COc1cc2/c(=N/c3ccc(Br)cc3F)nc[nH]c2cc1OCC1CCN(C)CC1 [Vandetanib]	81.8
COCC[n+]1c2c(n(Cc3cnccn3)c1C)C(=O)c1ccccc1C2=O [YM155]	3.81

Same assay, conditions: 1000 nM; incubation time: 72 h

SMILES	normalised viability [%]
S=P(N1CC1)(N1CC1)N1CC1 [Thio-TEPA]	123

Tested on: HDQ-P1
Experiment: as above
Settings: 10 nM; incubation time: 72 h
Experimental: as §1

SMILES	normalised viability [%]
c1ccc2c(CCNc3ccc(Nc4ccncc4)cc3)c[nH]c2c1 [Serdemetan]	106
CN(C)CCOc1ccc(/C(=C(/CCCl)c2ccccc2)c2ccccc2)cc1 [Toremifene]	129
CC(C)C[C@@H](C(=O)N[C@H](C(=O)OC1CCCC1)c1ccccc1)[C@H](O)C(=O)NO [Tosedostat]	113
COc1cc2/c(=N/c3ccc(Br)cc3F)nc[nH]c2cc1OCC1CCN(C)CC1 [Vandetanib]	76.7
COCC[n+]1c2c(n(Cc3cnccn3)c1C)C(=O)c1ccccc1C2=O [YM155]	64.2

Same assay, conditions: 100 nM; incubation time: 72 h

SMILES	normalised viability [%]
S=P(N1CC1)(N1CC1)N1CC1 [Thio-TEPA]	120

Tested on: Hs578T
Experiment: as above
Settings: 100 nM; incubation time: 72 h
Experimental: as §1

SMILES	normalised viability [%]
c1ccc2c(CCNc3ccc(Nc4ccncc4)cc3)c[nH]c2c1 [Serdemetan]	77.2
CN(C)CCOc1ccc(/C(=C(/CCCl)c2ccccc2)c2ccccc2)cc1 [Toremifene]	85.4
CC(C)C[C@@H](C(=O)N[C@H](C(=O)OC1CCCC1)c1ccccc1)[C@H](O)C(=O)NO [Tosedostat]	94.2
COc1cc2/c(=N/c3ccc(Br)cc3F)nc[nH]c2cc1OCC1CCN(C)CC1 [Vandetanib]	67.8
COCC[n+]1c2c(n(Cc3cnccn3)c1C)C(=O)c1ccccc1C2=O [YM155]	47.6

Same assay, conditions: 1000 nM; incubation time: 72 h

SMILES	normalised viability [%]
S=P(N1CC1)(N1CC1)N1CC1 [Thio-TEPA]	90.8

Tested on: MDA-MB-231
Experiment: as above
Settings: 100 nM; incubation time: 72 h
Experimental: as §1

SMILES	normalised viability [%]
c1ccc2c(CCNc3ccc(Nc4ccncc4)cc3)c[nH]c2c1 [Serdemetan]	85.8
CN(C)CCOc1ccc(/C(=C(/CCCl)c2ccccc2)c2ccccc2)cc1 [Toremifene]	94.2
CC(C)C[C@@H](C(=O)N[C@H](C(=O)OC1CCCC1)c1ccccc1)[C@H](O)C(=O)NO [Tosedostat]	72.6
COc1cc2/c(=N/c3ccc(Br)cc3F)nc[nH]c2cc1OCC1CCN(C)CC1 [Vandetanib]	94
COCC[n+]1c2c(n(Cc3cnccn3)c1C)C(=O)c1ccccc1C2=O [YM155]	1.71

Same assay, conditions: 1000 nM; incubation time: 72 h

SMILES	normalised viability [%]
S=P(N1CC1)(N1CC1)N1CC1 [Thio-TEPA]	98.2

Tested on: MDA-MB-436
Experiment: as above
Settings: 100 nM; incubation time: 72 h
Experimental: as §1

SMILES	normalised viability [%]
c1ccc2c(CCNc3ccc(Nc4ccncc4)cc3)c[nH]c2c1 [Serdemetan]	113
CN(C)CCOc1ccc(/C(=C(/CCCl)c2ccccc2)c2ccccc2)cc1 [Toremifene]	110
CC(C)C[C@@H](C(=O)N[C@H](C(=O)OC1CCCC1)c1ccccc1)[C@H](O)C(=O)NO [Tosedostat]	96.2
COc1cc2/c(=N/c3ccc(Br)cc3F)nc[nH]c2cc1OCC1CCN(C)CC1 [Vandetanib]	71.3
COCC[n+]1c2c(n(Cc3cnccn3)c1C)C(=O)c1ccccc1C2=O [YM155]	2.36

Same assay, conditions: 1000 nM; incubation time: 72 h

SMILES	normalised viability [%]
S=P(N1CC1)(N1CC1)N1CC1 [Thio-TEPA]	118

Tested on: MDA-MB-453
Experiment: as above
Settings: 10 nM; incubation time: 72 h
Experimental: as §1

SMILES	normalised viability [%]
c1ccc2c(CCNc3ccc(Nc4ccncc4)cc3)c[nH]c2c1 [Serdemetan]	96.7
CN(C)CCOc1ccc(/C(=C(/CCCl)c2ccccc2)c2ccccc2)cc1 [Toremifene]	118
CC(C)C[C@@H](C(=O)N[C@H](C(=O)OC1CCCC1)c1ccccc1)[C@H](O)C(=O)NO [Tosedostat]	99.1
